This note sets out measurements from US8987193B2, “Nisin derivatives and the use thereof” (University College Cork—National University of Ireland, Cork, priority 2008, dated 2015).

Entries after “also recorded” stand apart in the source; their conditions may differ. Ends that are not written are not given here.

The test system of one assay is Staph. aureus DPC5245. Description: Deferred antagonism assay. The assay is classed as cell-based. To be noted: producing strain; diameter of zone minus 5 mm; average of duplicates; St. aureus DPC5245. In outline: (§1)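 Producer strains replicated on GM17 agar, grown overnight, then overlaid with soft agar (0.75% w/v) seeded with indicator strain. Zone size = clearing diameter minus 5 mm growth diameter, relative to NZ9800 pCI372nisA control; mean of duplicates.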

The test system of assay [1] is Staph. aureus ST528 (MRSA). Description: Deferred antagonism assay. In kind it is cell-based. To be noted: producing strain, diameter of zone minus diameter of bacterial growth (5 mm), average of duplicates. In outline:
as §1

Assay [2] concerns Strep. agalactiae ATCC13813. In words: Deferred antagonism assay. The assay is classed as cell-based. To be noted: producing strain, diameter of zone minus 5 mm, average of duplicates.
The next assay relates to L. monocytogenes CBC1. Description: Deferred antagonism assay. The assay is classed as cell-based, Listeria monocytogenes. Conditions: producing strain; L. mono CBC1. Also noted: key: + = Enhanced bioactivity relative to control; − = Bioactivity equal to or less than control; NA = no activity evident. A digest of the protocol:
(§2)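 Producer strains replicated on GM17 or GM17 x-gal agar, grown overnight, then overlaid with 0.75% agar seeded with indicator strain. Zone size = diameter of clearing minus 5 mm growth diameter. Purified nisins tested by well diffusion at 37° C overnight; activity in AU/ml from reciprocal of highest active dilution × 20.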

Another assay concerns L. monocytogenes CBC2. Description: Deferred antagonism assay. The assay is classed as cell-based, Listeria monocytogenes. Further details: key: + = Enhanced bioactivity relative to control; − = Bioactivity equal to or less than control; NA = no activity evident. Conditions: producing strain; L. mono CBC2. In outline:
as §2

A further assay relates to L. monocytogenes CBC3. Description: Deferred antagonism assay. The assay is classed as cell-based, Listeria monocytogenes. Further details: key: + = Enhanced bioactivity relative to control; − = Bioactivity equal to or less than control; NA = no activity evident. To be noted: producing strain; L. mono CBC3. A digest of the protocol:
as §2

The subject of another assay is L. lactis CBC7. In words: Deferred antagonism assay. In kind it is cell-based. To be noted: producing strain. Further details: key: + = Enhanced bioactivity relative to control; − = Bioactivity equal to or less than control; NA = no activity evident. A digest of the protocol:
as §2

The test system of another assay is L. lactis CBC8. Description: Deferred antagonism assay. Also noted: key: + = Enhanced bioactivity relative to control; − = Bioactivity equal to or less than control; NA = no activity evident. To be noted: producing strain. The assay is classed as cell-based. A digest of the protocol:
as §2

Another assay relates to S. aureus CBC4. In words: Deferred antagonism assay. The assay is classed as cell-based. Also noted: key: + = Enhanced bioactivity relative to control; − = Bioactivity equal to or less than control; NA = no activity evident. To be noted: producing strain. In outline: as §2
The test system of another assay is C. sporogenes CBC5. Description: Deferred antagonism assay. The assay is classed as cell-based, Clostridium sporogenes. Further details: key: + = Enhanced bioactivity relative to control; − = Bioactivity equal to or less than control; NA = no activity evident. Conditions: producing strain.
The next assay concerns L. plantarum CBC6. In words: Deferred antagonism assay. To be noted: producing strain. In kind it is cell-based, Lactobacillus plantarum. Also noted: key: + = Enhanced bioactivity relative to control; − = Bioactivity equal to or less than control; NA = no activity evident. A digest of the protocol:
as §2

The subject of the next assay is indicator strains. In words: Deferred antagonism assays, various indicator strains (summary). The assay is classed as cell-based. Conditions: for bioactivity of the producing strain, in words: in general / against the strains tested; for Strain(s) against which the derivative (producing strain) displays enhanced bioactivity: relative to nisin A-producing control, value = strains listed. In outline:
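Producer strains were replicated on GM17 or GM17 x-gal agar, grown overnight, then overlaid with GM17, BHI, TS or MH soft agar (0.75% w/v) seeded with the indicator strain. Zone size was taken as the clearing diameter minus the diameter of bacterial growth (5 mm).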

On to “NisinA M21K (ITSISLCTPGCKTGALMGCNKKTATCHCSIHVSK; not fully specified; also: lantibiotic nisin: dehydrated residues and thioether rings not placed; UniProt P13068 24-57, looked up, variant M21K) [nisin A derivative, hinge substitution M21K]”, for which the “zone size relative to that of the NZ9800 pCI372nisA control” value (“zone size relative to that” below) in the assay with Staph. aureus DPC5245 turned out to be 104%; in assay [1], 89%; in assay [2] it was 91%. Further, the “Bioactivity relative to control” value with L. monocytogenes CBC1 is given as “−”; in the assay with L. monocytogenes CBC2, “−”; in the assay with L. monocytogenes CBC3, “−”; in the assay with L. lactis CBC7, “−”; with L. lactis CBC8, “−”; with S. aureus CBC4 it was “+”. Further, the “Bioactivity relative to control” value in the assay on C. sporogenes CBC5 is “+”; with L. plantarum CBC6, “−”. For the same substance, the “bioactivity of the producing strain, in words” value (“bioactivity … in words” below) in the assay on indicator strains was “close to wild-type bioactivities”. Further, in the assay with indicator strains, the “Strain(s) against which the derivative (producing strain) displays enhanced bioactivity” value (“Strain(s) against which the derivative” below) is “Staph. aureus CBC4 and C. sporogenes CBC5; also recorded: S. aureus CBC 4 and C. sporogenes CBC5; also recorded: S. aureus CBC4, C. sporogenes CBC5”.

Turning to NisinA M21N, the “zone size relative to that” value in the assay on Staph. aureus DPC5245 is reported as 90%; in assay [1], 95%; in assay [2], 98%. Further, the “Bioactivity relative to control” value in the assay with L. monocytogenes CBC1 is given as “−”; in the assay with L. monocytogenes CBC2 it was “−”; in the assay with L. monocytogenes CBC3 it was “−”; with L. lactis CBC7, “−”; in the assay on L. lactis CBC8, “+”; with S. aureus CBC4, “−”. For the same substance, the “Bioactivity relative to control” value with C. sporogenes CBC5 and in the assay with L. plantarum CBC6 was “−” each time. Also, the “bioactivity … in words” value in the assay on indicator strains is given as “approximately wild type bioactivity”. Moreover, the “Strain(s) against which the derivative” value in the assay with indicator strains is “L. lactis CBC8”.

With NisinA N20A, the entries for the “zone size relative to that” value (in the assay on Staph. aureus DPC5245; in assay [1]; in [2]) were 69%, 60.5% and 52%, respectively. The “Bioactivity relative to control” value in the assay with L. monocytogenes CBC1, with L. monocytogenes CBC2, with L. monocytogenes CBC3, in the assay on L. lactis CBC7, in the assay on L. lactis CBC8 and in the assay on S. aureus CBC4 was “−” in each case. For the same substance, the “Bioactivity relative to control” value in the assay on C. sporogenes CBC5 is “+”; with L. plantarum CBC6, “−”. The “Strain(s) against which the derivative” value in the assay on indicator strains was “C. sporogenes CBC5”.

For the substance “NisinA N20F (ITSISLCTPGCKTGALMGCFMKTATCHCSIHVSK; not fully specified; also: lantibiotic nisin: dehydrated residues and thioether rings not placed; UniProt P13068 24-57, looked up, variant N20F) [nisin A derivative, hinge substitution N20F]”, the “zone size relative to that” value in the assay with Staph. aureus DPC5245 was found to be 20.5%; in assay [1], 11.25%; in assay [2], 15%. In addition, the “Bioactivity relative to control” value in the assay on L. monocytogenes CBC1 is recorded as “−”; in the assay on L. monocytogenes CBC2, “−”; in the assay on L. monocytogenes CBC3, “−”; in the assay with L. lactis CBC7, “+”; in the assay with L. lactis CBC8, “−”; with S. aureus CBC4 it was “−”. In addition, the “Bioactivity relative to control” value in the assay with C. sporogenes CBC5 and in the assay on L. plantarum CBC6 was “−” each time. In the assay with indicator strains, the “Strain(s) against which the derivative” value was “L. lactis CBC7”.

For “NisinA N20H (ITSISLCTPGCKTGALMGCHMKTATCHCSIHVSK; not fully specified; also: lantibiotic nisin: dehydrated residues and thioether rings not placed; UniProt P13068 24-57, looked up, variant N20H) [nisin A derivative, hinge substitution N20H]”, the “zone size relative to that” value in the assay with Staph. aureus DPC5245 is 95%; in [1] it was 74.5%; in assay [2], 59.5%. Further, the “Bioactivity relative to control” value in the assay with L. monocytogenes CBC1 is given as “−”; in the assay on L. monocytogenes CBC2, “−”; in the assay with L. monocytogenes CBC3, “+”; in the assay with L. lactis CBC7 it was “−”; in the assay with L. lactis CBC8, “−”; with S. aureus CBC4, “+”. Also, the “Bioactivity relative to control” value in the assay with C. sporogenes CBC5 is “+”; with L. plantarum CBC6, “−”. In addition, the “Strain(s) against which the derivative” value in the assay on indicator strains is “L. monocytogenes CBC3, S. aureus CBC4 and C. sporogenes CBC5”.

“NisinA N20R (ITSISLCTPGCKTGALMGCRMKTATCHCSIHVSK; not fully specified; also: lantibiotic nisin: dehydrated residues and thioether rings not placed; UniProt P13068 24-57, looked up, variant N20R) [nisin A derivative, hinge substitution N20R]”: the “zone size relative to that” value was found to be 53.5% with Staph. aureus DPC5245, 0% in assay [1] and 19% in assay [2]. Further, the “Bioactivity relative to control” value in the assay on L. monocytogenes CBC1, with L. monocytogenes CBC2, with L. monocytogenes CBC3, in the assay with L. lactis CBC7, with L. lactis CBC8 and in the assay with S. aureus CBC4 was “−” in each case. The “Bioactivity relative to control” value in the assay with C. sporogenes CBC5 is listed as “+”; with L. plantarum CBC6 it was “−”. Also, the “bioactivity … in words” value with indicator strains is “greatly reduced bioactivities”. For the same substance, the “Strain(s) against which the derivative” value in the assay on indicator strains is “C. sporogenes CBC5”.

For “NisinA N20S (ITSISLCTPGCKTGALMGCSMKTATCHCSIHVSK; not fully specified; also: lantibiotic nisin: dehydrated residues and thioether rings not placed; UniProt P13068 24-57, looked up, variant N20S) [nisin A derivative, hinge substitution N20S]”, the entries for the “zone size relative to that” value (in the assay on Staph. aureus DPC5245; in assay [1]; in assay [2]) were 87.5%, 83.5% and 72%, respectively. In addition, the “Bioactivity relative to control” value in the assay on L. monocytogenes CBC1 is on record as “−”; in the assay on L. monocytogenes CBC2, “+”; in the assay with L. monocytogenes CBC3 it was “−”; with L. lactis CBC7, “−”; with L. lactis CBC8, “−”; with S. aureus CBC4, “+”. Besides, the “Bioactivity relative to control” value is given as “+” in the assay on C. sporogenes CBC5 and “−” with L. plantarum CBC6. In the assay on indicator strains, the “Strain(s) against which the derivative” value is “L. monocytogenes CBC2, Staph. aureus CBC4 and C. sporogenes CBC5 and L. monocytogenes CBC2, S. aureus CBC4 and L. monocytogenes CBC2, S. aureus CBC4, C. sporogenes and CBC5”.
